Measured values reported in the NIST ThermoML archive (doi:10.1016/j.jct.2016.03.040).

Experiment: mn = molality of the nth substance listed, in mol/kg
Conditions: 100 kPa, Liquid; for speed of sound: Frequency=3 MHz, Sing-around technique in a fixed-path interferometer; for mass density: Vibrating tube method

NCC(=O)NCC(=O)O [glycylglycine] + O
Conditions | mass density, 288.15 K [kg/m3] | mass density, 298.15 K [kg/m3] | mass density, 308.15 K [kg/m3] | mass density, 318.15 K [kg/m3] | speed of sound, 288.15 K [m/s] | speed of sound, 298.15 K [m/s] | speed of sound, 308.15 K [m/s] | speed of sound, 318.15 K [m/s]
m1 = 0.01033 | 999.704 | 997.627 | 994.594 | 990.758 | 1467.7 | 1496.8 | 1520.3 | 1536.9
m1 = 0.02031 | 1000.23 | 998.133 | 995.135 | 991.281 | 1468.6 | 1497.7 | 1521.2 | 1537.7
m1 = 0.04035 | 1001.4 | 999.259 | 996.28 | 992.375 | 1470.5 | 1499.5 | 1522.8 | 1539.3
m1 = 0.06012 | 1002.5 | 1000.39 | 997.363 | 993.41 | 1472.4 | 1501.3 | 1524.4 | 1540.8
m1 = 0.0802 | 1003.7 | 1001.51 | 998.463 | 994.52 | 1474.3 | 1503.1 | 1526 | 1542.4
m1 = 0.1011 | 1004.84 | 1002.62 | 999.564 | 995.646 | 1476.3 | 1505 | 1527.7 | 1544
m1 = 0.1502 | 1007.57 | 1005.27 | 1002.18 | 998.186 | 1480.9 | 1509.4 | 1531.8 | 1547.9
m1 = 0.1995 | 1010.2 | 1007.94 | 1004.8 | 1000.72 | 1485.5 | 1513.8 | 1535.8 | 1551.8
